Experimental data taken from US4468511A, “C-20- And C-23-Modified macrolide derivatives” (Eli Lilly and Company, priority 1983, dated 1984).
In brackets after ≈: the same amount, converted by molar mass. Where two headings read alike, the source gives them in different places.

Columns and labels:
[1] = test system: Staphylococcus epidermidis EPI1; experiment: microbe, parasite or virus in culture; format: cell-based; conditions: Staphylococcus epidermidis, EPI1
Protocol: (§1) The MIC's in Table II were determined by standard agar-dilution assays. The MIC's in Table III were obtained using a conventional broth-dilution microtiter test.

[2] = test system: Staphylococcus aureus S13E; experiment: microbe, parasite or virus in culture; format: cell-based
Protocol: as §1

[3] = test system: Staphylococcus epidermidis EPI2; experiment: MIC, standard agar-dilution assay; format: cell-based; conditions: agar-dilution; Staphylococcus epidermidis EPI2; read-out: MIC
Protocol: as §1

[4] = test system: Haemophilus influenzae 76; experiment: MIC, standard agar-dilution assay; format: cell-based; conditions: Haemophilus influenzae, 76
Protocol: as §1

[5] = test system: Staphylococcus aureus X400; experiment: MIC, standard agar-dilution assay; format: cell-based; conditions: Staphylococcus aureus, X400
Protocol: as §1

[6] = test system: Haemophilus influenzae C.L.; experiment: MIC, standard agar-dilution assay; format: cell-based; conditions: Haemophilus influenzae
Protocol: as §1

[7] = test system: Klebsiella pneumoniae KAE; experiment: MIC, standard agar-dilution assay; format: cell-based; conditions: agar-dilution; Klebsiella pneumoniae KAE; read-out: MIC
How it was run: (§2)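 Broth microdilution MICs cover P. hemolytica, P. multocida and M. gallisepticum. The agar-dilution MIC covers K. pneumoniae only.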

[8] = test system: Streptococcus pyogenes C203; experiment: MIC, standard agar-dilution assay; format: cell-based; conditions: Streptococcus pyogenes, C203
Protocol: (§3) Certain of the derivatives are active against some gram-negative bacteria, such as Pasteurella species. The MIC's in Table II were determined by standard agar-dilution assays. The MIC's in Table III were obtained using a conventional broth-dilution microtiter test.

[9] = test system: Streptococcus pyogenes 9960; experiment: MIC, standard agar-dilution assay; format: cell-based; conditions: agar-dilution, Streptococcus 9960, read-out: MIC
Protocol: as §3

Escherichia coli EC14 = experiment: MIC, standard agar-dilution assay; format: cell-based
Protocol: as §3

[10] = test system: Staphylococcus aureus V41; experiment: MIC, standard agar-dilution assay; format: cell-based; conditions: Staphylococcus aureus, V41
Protocol: as §3

[11] = test system: Streptococcus pneumoniae Park I; experiment: MIC, standard agar-dilution assay; format: cell-based
Protocol: as §3

[12] = test system: Streptococcus Group D X66; experiment: MIC, standard agar-dilution assay; format: cell-based
Protocol: as §3

[13] = test system: Staphylococcus aureus X1.1; experiment: MIC, standard agar-dilution assay; format: cell-based; conditions: Staphylococcus aureus, X1.1
How it was run: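 A standard agar-dilution assay was used to test compounds against the Staphylococcus aureus isolate X1.1. Bacterial growth on agar with different compound concentrations was assessed, and the minimum inhibitory concentration was recorded in ug/mL.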

Escherichia coli TEM = experiment: MIC, standard agar-dilution assay; format: cell-based
How it was run: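 Antibacterial activity toward the gram-negative organism Escherichia coli was assessed by conventional agar dilution. The MIC, reported in ug/mL, is the minimum compound concentration on agar that prevents growth.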

[14] = test system: Klebsiella pneumoniae X26; experiment: MIC, standard agar-dilution assay; format: cell-based; conditions: agar-dilution; Klebsiella pneumoniae X26; read-out: MIC
How it was run: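 Agar plates containing graded compound levels gave the Klebsiella value. Graded broth dilutions in microtiter plates gave the Pasteurella and Mycoplasma values.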

Mycoplasma hyorhinis = experiment: MIC, conventional broth-dilution microtiter test; format: cell-based; conditions: broth-dilution microtiter; Mycoplasma hyorhinis; read-out: MIC
How it was run: (§4)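 Two formats were used. Broth dilution in microtiter plates served for Pasteurella and Mycoplasma, while agar dilution served for Klebsiella.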

[15] = test system: Pasteurella hemolytica 23C; experiment: MIC, conventional broth-dilution microtiter test; format: cell-based; conditions: broth-dilution microtiter; Pasteurella hemolytica 23C; read-out: MIC
How it was run: as §2

[16] = test system: Pasteurella hemolytica 22C; experiment: MIC, conventional broth-dilution microtiter test; format: cell-based; conditions: broth-dilution microtiter; Pasteurella hemolytica 22C; read-out: MIC
How it was run: as §2

[17] = test system: Mycoplasma gallisepticum 41313; experiment: MIC, conventional broth-dilution microtiter test; format: cell-based; conditions: Mycoplasmoides gallisepticum
How it was run: as §2

Streptococcus sp. 80 = experiment: MIC, conventional broth-dilution microtiter test; format: cell-based; conditions: Streptococcus, SP.80
Protocol: as §3

[18] = test system: Pasteurella multocida 17E; experiment: MIC, conventional broth-dilution microtiter test; format: cell-based; conditions: broth-dilution microtiter; Pasteurella multocida 17E, Bovine isolate; read-out: MIC
How it was run: as §2

Staphylococcus aureus = experiment: MIC, conventional broth-dilution microtiter test; format: cell-based
Protocol: as §3

[19] = test system: Pasteurella hemolytica 41D; experiment: MIC, conventional broth-dilution microtiter test; format: cell-based; conditions: broth-dilution microtiter; Pasteurella hemolytica 41D; read-out: MIC
How it was run: as §2

Mycoplasma gallisepticum = experiment: MIC, conventional broth-dilution microtiter test; format: cell-based; conditions: Mycoplasmoides gallisepticum
How it was run: as §2

Mycoplasma synoviae = experiment: MIC, conventional broth-dilution microtiter test; format: cell-based; conditions: Mycoplasmopsis synoviae; broth-dilution microtiter; Mycoplasma synoviae; read-out: MIC
How it was run: as §4

[20] = test system: Mycoplasma gallisepticum 34159; experiment: MIC, conventional broth-dilution microtiter test; format: cell-based; conditions: Mycoplasmoides gallisepticum
How it was run: as §2

[21] = test system: Pasteurella multocida 22A; experiment: MIC, conventional broth-dilution microtiter test; format: cell-based; conditions: broth-dilution microtiter; Pasteurella multocida 22A; read-out: MIC
How it was run: as §2

[22] = test system: Pasteurella multocida 60A; experiment: MIC, conventional broth-dilution microtiter test; format: cell-based; conditions: broth-dilution microtiter; Pasteurella multocida 60A, Avian isolate; read-out: MIC
How it was run: as §2

[23] = test system: Pasteurella multocida 68C; experiment: MIC, conventional broth-dilution microtiter test; format: cell-based
How it was run: as §2

[24] = test system: Pasteurella multocida 40G; experiment: MIC, conventional broth-dilution microtiter test; format: cell-based; conditions: broth-dilution microtiter; Pasteurella multocida 40G; read-out: MIC
How it was run: as §2

[25] = test system: Streptococcus pyogenes C203; experiment: Protection of mice experimentally infected with S. pyogenes C203; format: in vivo
Protocol: Some of the derivatives of this invention have shown in vivo antimicrobial activity against experimentally-induced infections in laboratory animals. When two doses of test compound were administered to mice experimentally infected with S. pyogenes C203, the activity observed was measured as an ED50 value [effective dose in mg/kg to protect 50% of the test animals: see Warren Wick, et al., J. Bacteriol. 81, 233-235 (1961)].

Pasteurella multocida = experiment: Pasteurella infection in one-day old chicks; format: in vivo; conditions: subcutaneous, 30 mg/kg × 2, 1 and 4 hours post-challenge
Protocol: Certain of the formula 1 compounds of this invention have also shown in vivo activity against infections induced by gram-negative bacteria. Table V summarizes the results of tests in which illustrative compounds were evaluated against a Pasteurella infection in one-day old chicks. The compounds were administered parenterally after challenge of the chicks with Pasteurella multocida (0.1 ml of a 10^-4 dilution of a twenty-hour tryptose broth culture of an avian P. multocida given subcutaneously). In these tests, unless indicated otherwise, all non-medicated infected chicks died within 24 hours of Pasteurella challenge. In the tests summarized in Table V, the compounds were administered by subcutaneous injection at a dosage of 30 mg/kg, 1 and 4 hours post-challenge of the chicks with P. multocida.

[26] = C203, sc, mice, subcutaneous, mg/kg × 2, doses given 1 and 4 hours postinfection, read-out: ED50 Subcutaneous

| SMILES | MIC [1] | MIC [2] | MIC [3] | MIC [4] | MIC [5] | MIC [6] | MIC [7] | MIC [8] | MIC [9] | MIC [10] | MIC [12] | MIC [13] | MIC [14] | MIC (Mycoplasma hyorhinis) | MIC [15] | MIC [16] | MIC (Streptococcus sp. 80) | MIC [18] | MIC [19] | MIC (Mycoplasma gallisepticum) | further results |
| --- | --- | --- | --- | --- | --- | --- | --- | --- | --- | --- | --- | --- | --- | --- | --- | --- | --- | --- | --- | --- | --- |
| CCC1OC(=O)CC(O)C(C)C(OC2OC(C)C(O)C(N(C)C)C2O)C(CCNCCc2ccccc2)CC(C)C(=O)C=CC(C)=CC1CO (centres unmarked) [Compound 5, 20-N-Phenethylamino-20-deoxy-20-dihydro-OMT] | 4 µg/mL (≈ 5.69 µM) | 8 µg/mL (≈ 11.4 µM) | 16 µg/mL (≈ 22.8 µM) | 8 µg/mL (≈ 11.4 µM) | 16 µg/mL (≈ 22.8 µM) | 8 µg/mL (≈ 11.4 µM) | > 128 µg/mL | 2 µg/mL (≈ 2.85 µM) | 16 µg/mL (≈ 22.8 µM) | 8 µg/mL (≈ 11.4 µM) | 8 µg/mL (≈ 11.4 µM) | 4 µg/mL (≈ 5.69 µM) | 4 µg/mL (≈ 5.69 µM) | > 50 µg/mL | 3.12 µg/mL (≈ 4.44 µM) | 6.25 µg/mL (≈ 8.89 µM) | 1.56 µg/mL (≈ 2.22 µM) | 3.12 µg/mL (≈ 4.44 µM) | 3.12 µg/mL (≈ 4.44 µM) | 1.56 µg/mL (≈ 2.22 µM) | MIC (Escherichia coli EC14; Escherichia coli, EC14): 64 µg/mL (≈ 91 µM); MIC ([11]; agar-dilution, Streptococcus pneumoniae Park I, read-out: MIC): 1 µg/mL (≈ 1.42 µM); MIC (Escherichia coli TEM; Escherichia coli): 8 µg/mL (≈ 11.4 µM); MIC [17]; 41313: 50 µg/mL (≈ 71.1 µM); MIC (Staphylococcus aureus; broth-dilution microtiter, read-out: MIC): 6.25 µg/mL (≈ 8.89 µM); MIC (Mycoplasma synoviae): 3.12 µg/mL (≈ 4.44 µM); MIC [20]; 34159: 50 µg/mL (≈ 71.1 µM); MIC [21]: 6.25 µg/mL (≈ 8.89 µM); MIC [22]: 3.12 µg/mL (≈ 4.44 µM); MIC ([23]; Pasteurella multocida, 68C): 1.56 µg/mL (≈ 2.22 µM); MIC [24]: 6.25 µg/mL (≈ 8.89 µM); ED50 ([25]; C203, mice, oral, mg/kg × 2, doses given 1 and 4 hours postinfection, read-out: ED50 Oral): > 100 mg/kg; ED50 [25, 26]: 7.2 mg/kg; Number of Deaths/Number Treated (Pasteurella multocida): 1/10 |
| CCC1CC(C)C(=O)C=CC(C)=CC(COc2cccnc2)C(CC)OC(=O)CC(O)C(C)C1OC1OC(C)C(O)C(N(C)C)C1O (centres unmarked) [Compound 46, 23-O-(3-Pyridyl)-20-deoxy-20-dihydro-OMT] | 1 µg/mL (≈ 1.51 µM) | 1 µg/mL (≈ 1.51 µM) | 0.25 µg/mL (≈ 0.378 µM) | 16 µg/mL (≈ 24.2 µM) | 2 µg/mL (≈ 3.03 µM) | 16 µg/mL (≈ 24.2 µM) | > 128 µg/mL | 2 µg/mL (≈ 3.03 µM) | 4 µg/mL (≈ 6.05 µM) | 0.5 µg/mL (≈ 0.757 µM) | 2 µg/mL (≈ 3.03 µM) | 1 µg/mL (≈ 1.51 µM) | 4 µg/mL (≈ 6.05 µM) | 25 µg/mL (≈ 37.8 µM) | 50 µg/mL (≈ 75.7 µM) | 50 µg/mL (≈ 75.7 µM) | 3.12 µg/mL (≈ 4.72 µM) | 12.5 µg/mL (≈ 18.9 µM) | 25 µg/mL (≈ 37.8 µM) | 1.56 µg/mL (≈ 2.36 µM) | MIC (Escherichia coli EC14; agar-dilution, Escherichia coli EC14, read-out: MIC): > 128 µg/mL; MIC ([11]; Streptococcus pneumoniae): 0.5 µg/mL (≈ 0.757 µM); MIC (Escherichia coli TEM; agar-dilution, Escherichia coli TEM, read-out: MIC): 128 µg/mL (≈ 194 µM); MIC ([17]; broth-dilution microtiter, Mycoplasma gallisepticum 41313, Resistant strain, read-out: MIC): 50 µg/mL (≈ 75.7 µM); MIC (Staphylococcus aureus): 1.56 µg/mL (≈ 2.36 µM); MIC (Mycoplasma synoviae): 6.25 µg/mL (≈ 9.46 µM); MIC ([20]; broth-dilution microtiter, Mycoplasma gallisepticum 34159, Resistant strain, read-out: MIC): 50 µg/mL (≈ 75.7 µM); MIC [21]: 12.5 µg/mL (≈ 18.9 µM); MIC [22]: 12.5 µg/mL (≈ 18.9 µM); MIC ([23]; broth-dilution microtiter, Pasteurella multocida 68C, read-out: MIC): 6.25 µg/mL (≈ 9.46 µM); MIC [24]: 12.5 µg/mL (≈ 18.9 µM); ED50 ([25]; C203, po, read-out: ED50 Oral): > 100 mg/kg; ED50 [25, 26]: > 10 mg/kg; Number of Deaths/Number Treated (Pasteurella multocida): 10/10 |
